Experimental data taken from ChEMBL document CHEMBL5126543, “Tandem construction of biological relevant aliphatic 5-membered N-heterocycles” (Eur J Med Chem, 2022).

Experiments:
[1] = test system: A549; test: Cytotoxicity against human A549 cells treated for 72 hrs by MTT assay; type: functional, cell-based; details: A549, 72 h
[2] = test system: HeLa; test: Cytotoxicity against human HeLa cells treated for 72 hrs by MTT assay; type: functional, cell-based
[3] = test system: SK-BR-3; test: Cytotoxicity against human SK-BR-3 cells treated for 72 hrs by MTT assay; type: functional, cell-based; details: SK-BR-3, 72 h
[4] = test system: MCF7; test: Cytotoxicity against human MCF7 cells treated for 72 hrs by MTT assay; type: functional, cell-based; details: MCF7, 72 h
[5] = test system: PC-3; test: Cytotoxicity against human PC-3 cells treated for 72 hrs by MTT assay; type: functional, cell-based; details: PC-3, 72 h
[6] = test system: C32; test: Antiproliferative activity against human C32 cells measured after 72 hrs by WST-1 assay; type: functional, cell-based; details: C32, 72 h
[7] = test system: MDA-MB-231; test: Antiproliferative activity against human MDA-MB-231 cells measured after 72 hrs by WST-1 assay; type: functional, cell-based; details: MDA-MB-231, 72 h
[8] = test system: SNB-19; test: Antiproliferative activity against human SNB-19 cells measured after 72 hrs by WST-1 assay; type: functional, cell-based; details: SNB-19, 72 h
[9] = Cytotoxicity against HFF-1 cells measured after 72 hrs by WST-1 assay; type: toxicity, cell-based; details: human

| SMILES | IC50 [1] | IC50 [2] | IC50 [3] | IC50 [4] | IC50 [5] | IC50 [6] | IC50 [7] | IC50 [8] | IC50 at 72 h [9] |
| --- | --- | --- | --- | --- | --- | --- | --- | --- | --- |
| Clc1ccc(-c2cc(Nc3ccnc4cc(Cl)ccc34)ccc2CN2CCOCC2)cc1 | > 200 µM | > 200 µM | 2.98 µM | 170 µM | 11.7 µM |  |  |  |  |
| Clc1ccc(-c2cc(Nc3ccnc4cc(Cl)ccc34)ccc2CN2CCCC2)cc1 | > 200 µM | 32 µM | 32.7 µM | > 200 µM | 42.4 µM |  |  |  |  |
| Clc1ccc2c(Nc3ccc(CN4CCCCC4)c(-c4ccccc4)c3)ccnc2c1 | > 210 µM | 5.57 µM | 64.3 µM | > 200 µM | 74.4 µM |  |  |  |  |
| CCN(CC)Cc1ccc(Nc2ccnc3cc(Cl)ccc23)cc1-c1ccccc1 | 33.6 µM | > 200 µM | 3.65 µM | > 200 µM | 34.2 µM |  |  |  |  |
| Clc1ccc2c(Nc3ccc(CN4CCOCC4)c(-c4ccccc4)c3)ccnc2c1 | 69 µM | 54.4 µM | 76.5 µM | > 200 µM | 11.7 µM |  |  |  |  |
| Clc1ccc2c(Nc3ccc(CN4CCCC4)c(-c4ccccc4)c3)ccnc2c1 | 4.38 µM | < 1 µM | 0.009 µM | 7.99 µM | 44 µM |  |  |  |  |
| CN1CCN(Cc2ccc(Nc3ccnc4cc(Cl)ccc34)cc2-c2ccc(Cl)cc2)CC1 | 43.5 µM | < 1 µM | 16.8 µM | 25 µM | 24.2 µM |  |  |  |  |
| Clc1ccc(-c2cc(Nc3ccnc4cc(Cl)ccc34)ccc2CN2CCCCC2)cc1 | > 200 µM | > 200 µM | 2.98 µM | > 200 µM | > 200 µM |  |  |  |  |
| Clc1ccc2c(Nc3ccc(CN4CCCC4)cc3)ccnc2c1 | 58.8 µM | 28 µM | 12.7 µM | 46.9 µM | 42.7 µM |  |  |  |  |
| CCN(CC)Cc1ccc(Nc2ccnc3cc(Cl)ccc23)cc1 | > 250 µM | 2.03 µM | 121 µM | > 250 µM | > 250 µM |  |  |  |  |
| Clc1ccc2c(Nc3ccc(CN4CCCCC4)cc3)ccnc2c1 | > 250 µM | < 1 µM | 33.9 µM | 69.9 µM | 149 µM |  |  |  |  |
| Clc1ccc2c(Nc3ccc(CN4CCOCC4)cc3)ccnc2c1 | > 250 µM | < 1 µM | 6.16 µM | 69.5 µM | 11.7 µM |  |  |  |  |
| CC(C)(C)NCc1ccc(Nc2ccnc3cc(Cl)ccc23)cc1 | 197 µM | 36 µM | 37.3 µM | > 250 µM | 149 µM |  |  |  |  |
| Cn1cnc2nc(SCC#CCN3CCOCC3)nc(SCC#CCN3CCOCC3)c21 |  |  |  |  |  | 21.5 µM | 50.8 µM | 21.5 µM | 0.37 µM |
| Cn1c(SCC#CCN2CCCCC2)nc2c1c(=O)[nH]c(=O)n2C |  |  |  |  |  | 355 µM | 364 µM | 166 µM | 30.4 µM |
| Cn1c(SCC#CCN2CCCC2)nc2c1c(=O)[nH]c(=O)n2C |  |  |  |  |  | 51.1 µM | 472 µM | 177 µM | 34.3 µM |
| Cn1c(SCC#CCN2CCCC2)nc2nc(Cl)nc(SCC#CCN3CCCC3)c21 |  |  |  |  |  | 4.55 µM | 3.83 µM | 0.52 µM | 3.63 µM |
